Molecules are shown by their SMILES. Entries after “also recorded” stand apart in the source; their conditions may differ.

Experiment [1] has as its system HSPCs (LT-HSC, ST-HSC, MPP and CD150HSC) in the bone marrow. Put plainly: ABC294640 treatment of C57BL/6J mice during homeostasis: HSPC numbers and cell cycle. It counts as in vivo, mouse. The conditions noted are these: for HSC pool / HSC quiescence (cell cycle analysis of CD150 HSCs): vs vehicle. From the text:
(§1) B6N.129S6-Sphk1tm1Rlp/J (Sphk1Δ/Δ) and B6N.129S6-Sphk2tm1Rlp/J (Sphk2Δ/Δ) mice were obtained from the Jackson Laboratory. To achieve tissue-specific deletion of Sphk2, the Sphk2^flox/flox mice were crossed with Vav-Cre transgenic mice. Sphk2^flox/flox mice was constructed by Cyagen Biosciences Inc. Briefly, linearized targeting vector was electroporated into embryonic stem (ES) cells and positive clones were identified by Southern blotting and injected into C57BL/6 blastocysts followed by chimera production to obtain germline transmission. The Frt-flanked Neo cassette was subsequently removed by mating with Flpe mice. 2-month-old mice or more than 20-month old for aging we used as indicated. 5 FU (Sigma-Aldrich) was injected once or once a week for survival curve as indicated in the tail vein at 150 μg/g body weight. Sphk2 inhibitor ABC294640 (Target Molecule Corp T6750) and PDK inhibitor Sodium dichloroacetate (DCA) (Selleck Chemicals S8615) were intraperitoneal injected at 25 mg/kg. […] Animals were randomly included in the experiments according to genotyping results as a mix of male and female. All animal experiments were performed according to protocols approved by the institutional animal care and use committee.
For phenotype analysis and hematopoietic purification, hematopoietic cells were harvested from bone marrow (femur and tibia). For cell surface phenotyping, a lineage cocktail (Lin, phycoerythrin (PE)-Cy5) was used, including anti-CD3 (145-2C11), anti-CD4 (RM4-5), anti-CD8 (53-6.7), anti-Mac-1 (M1/70), anti-Gr1 (RB6-8C5), anti-B220 (RA3-6B2), anti-IgM (11/41) and anti-TER119 (TER-119) (100 ng antibody cocktail per million bone marrow cells, Biolegend). Monoclonal antibodies to SCA1 (D7, Biolegend), c-KIT (2B8, Biolegend), FLK2 (A2F10, Biolegend), CD34 (RAM34, eBioscience), CD48 (HM48-1, Biolegend), CD41 (MWReg30, eBioscience), CD150 (TC15-12F12.2, BioLegend), CD16/32 (93, Biolegend), IL-7R (A7R34, Biolegend) (all used as 50 ng per million bone marrow cells) were also used where indicated.
For cell cycle, DNA damage, the cells were fixed, permeabilized and stained by anti-Ki67 (16A8, Biolegend).
Cell sorting and analysis were performed using an Attune NxT analyzer (Thermo Fisher Scientific) or InFlux Cell Sorter (BD Biosciences). Data analysis was performed using FlowJo software.

Experiment [2] is described as follows: Survival of C57BL/6J mice after serial 5 FU challenges with ABC294640 treatment. The conditions noted are these: serial 5 FU every 7 days, ABC294640 every other day; vs control. It counts as in vivo, mouse. From the text: B6N.129S6-Sphk1tm1Rlp/J (Sphk1Δ/Δ) and B6N.129S6-Sphk2tm1Rlp/J (Sphk2Δ/Δ) mice were obtained from the Jackson Laboratory. To achieve tissue-specific deletion of Sphk2, the Sphk2^flox/flox mice were crossed with Vav-Cre transgenic mice. Sphk2^flox/flox mice was constructed by Cyagen Biosciences Inc. Briefly, linearized targeting vector was electroporated into embryonic stem (ES) cells and positive clones were identified by Southern blotting and injected into C57BL/6 blastocysts followed by chimera production to obtain germline transmission. The Frt-flanked Neo cassette was subsequently removed by mating with Flpe mice. 2-month-old mice or more than 20-month old for aging we used as indicated. 5 FU (Sigma-Aldrich) was injected once or once a week for survival curve as indicated in the tail vein at 150 μg/g body weight. Sphk2 inhibitor ABC294640 (Target Molecule Corp T6750) and PDK inhibitor Sodium dichloroacetate (DCA) (Selleck Chemicals S8615) were intraperitoneal injected at 25 mg/kg. […]
Data are expressed as means±s.d. For all experiments except determination of survival, data were analyzed by Student's t test, and differences were considered statistically significant if P<0.05. The survival of the two groups were analyzed using a log-rank test, and differences were considered statistically significant if P<0.05. […]

Experiment [3] deals with donor derived HSPCs, white blood cells and platelets. As to the kind of experiment: ABC294640 treatment of recipients after bone marrow transplantation: hematopoietic reconstitution. The conditions noted are these: vs vehicle. It counts as in vivo, mouse.
Text: as §1
2.0×10^5 CD45.2 bone marrow cells and 2.0×10^5 CD45.1 rescue bone marrow cells were transplanted into lethally irradiated CD45.1 recipients. Adult recipient mice (CD45.1) were irradiated with an Orthovoltage X-ray source delivering approximately in two equal doses of 4.5 Gy at least 3 hours apart. For secondary or tertiary transplantation, bone marrow cells from each recipient were injected into one or two irradiated new recipient mouse (1×10^6 per recipient, depending on the number of recipients) during each round of transplantation.
1×10^6 bone marrow cells were transplanted into lethally irradiated recipients, and the recipients were subjected to ABC294640 treatment or vehicle control (FIG. 67).

In experiment [4] the test system is human cord blood HSCs (CB-HSCs, CD34+CD38-CD45RA-CD49f+). Put plainly: Ex vivo culture of human cord blood cells with ABC294640. The conditions noted are these: 2-week culture, ABC294640 1 μM; vs vehicle. It counts as cell-based. The protocol:
For phenotype analysis of human cord blood HSCs (CB-HSCs, CD34^+CD38-CD45RA-CD49f^+), cell surface phenotyping, anti-hCD34 (581), anti-hCD38 (HIT2), anti-hCD45RA (HI100) and anti-hCD49f (GOH3) (100 ng antibody cocktail per million cord blood cells, Biolegend) were used. Human cord blood cells (2×10^5) were cultured in 96-round-well plate with Stem Span media (9650, Stem Cell Technologies) supplemented with SCF (10 ng per ml), TPO (20 ng per ml) for two weeks. The culture media was supplemented with vehicle or ABC294640 (1 μM, Target Molecule Corp […]). After culture for two weeks, the culture product was transplanted into irradiated (2Gy) 6-12 weeks old NSG mice via the tail. No mice were excluded unless they died during the 16-week-observations. All animal experiments were performed according to protocols approved by the institutional animal care and use committee.

Experiment [5] has as its system human HSCs (reconstitution in NSG mice). Put plainly: Transplantation of ABC294640 treated human cord blood HSCs into NSG mice. It counts as in vivo, mouse. As for the experimental part:
Or, in example 14, for lineage analysis of peripheral blood, monoclonal antibodies to anti-hCD45 (HI-30, eBioscience), anti-mCD45 (30-F11, Biolegend), anti-hCD33 (human myeloid cells) (WM53, eBioscience), anti-hCD19 (human B cells) (HIB19, eBioscience), anti-hCD3 (human T cells) (UCHT1, eBioscience) were used. Every 4 weeks after transplantation, peripheral blood was collected from the submandibular vein. Hematopoietic repopulation was measured from donor-derived blood cells (CD45.2) or human-derived blood cells (human CD45). Human cord blood cells (2×10^5) were cultured in 96-round-well plate with Stem Span media (9650, Stem Cell Technologies) supplemented with SCF (10 ng per ml), TPO (20 ng per ml) for two weeks. The culture media was supplemented with vehicle or ABC294640 (1 μM, Target Molecule Corp […]). After culture for two weeks, the culture product was transplanted into irradiated (2Gy) 6-12 weeks old NSG mice via the tail. No mice were excluded unless they died during the 16-week-observations. All animal experiments were performed according to protocols approved by the institutional animal care and use committee.

Experiment [6] concerns white blood cells and platelets. Put plainly: Recovery of blood cells after 5-fluorouracil or radiation-induced injury. It counts as in vivo, mouse.
[7] abbreviates: ABC294640 25 mg/kg intraperitoneal vs vehicle, bone marrow.
The mark [8] stands for this setting: one month after transplantation.
Where [9] appears, read: 16 weeks after transplantation in NSG mice.
Where [10] appears, read: after stimulation of the chemotherapeutic drug 5-fluorouracil.
[11] abbreviates: after the stimulation of radiation.

As for `O=C(NCc1ccncc1)C12CC3CC(C1)CC(c1ccc(Cl)cc1)(C3)C2` [ABC294640, 3-(4-chloro-phenyl)-adamantane-1-carboxylic acid (pyridin-4-ylmethyl)-amide], in experiment [1] (setting [7]), the “increase of CD150 HSC number” value is listed as 1.7 fold and the “increase of LT-HSC number” value is 2.1 fold. In experiment [1], the HSC pool entry is listed as “expanded HSPC pool” and the “HSC quiescence (cell cycle analysis of CD150 HSCs)” value is “increased quiescence”. For the same compound, in experiment [1] (listed as ABC294460), the HSC pool entry is given as “expands HSC pool” and the “HSC quiescence (cell cycle analysis of CD150 HSCs)” value is “promotes HSC quiescence”. The survival entry in experiment [2] was “significantly prolonged; also recorded: notably increased survival”. For the same compound, in experiment [3] (28 days after transplantation), the “increase of platelets in PB” value amounted to 2.6 fold and the “increase of white blood cells in PB” value is on record as 1.9 fold. Further, in experiment [3] (setting [8]), the “increase of donor derived CD150 HSC” value is reported as 2.2 fold, the “increase of donor derived LT-HSC” value was 2.2 fold and the “increase of donor derived ST-HSC” value came to 1.6 fold. Also, in experiment [4], the “increase of human HSC numbers” value came to 1.4 fold. Also, in experiment [5] (setting [9]), the “lymphopoiesis (both B and T cells in recipients)” value is recorded as “improved lymphopoiesis”; the multilineage potential result was “with multilineage potential”; the myeloid skewing result is listed as “reduction in myeloid skewing”. The “increase of reconstitution (human-derived blood cells)” value in experiment [5] (16 weeks post transplantation in NSG mice, vs vehicle cultured cells) came to 1.76 fold. For the same compound, in experiment [6] (setting [10]), the recovery of platelets result is on record as “significantly accelerated” and the “recovery of white blood cells” value was “significantly accelerated”. Also, in experiment [6] (setting [11]), the recovery of platelets result is reported as “significantly accelerated” and the “recovery of white blood cells” value is “significantly accelerated”.

Source of the values: US12622898B2, “Methods and compositions for improving bone marrow hematopoietic functions” (SUN YAT-SEN UNIVERSITY, priority 2019, dated 2026).
